Reference: patent US11612603B1, “3-triazolyl methyl-1,3,5-triazine-2,4-dione compounds and preparation method and application thereof” (priority 2022, dated 2023)
“And” between values parts separate entries of the source, which are not always exact repeats. Equal entries are not always repeated.

Molecular target: SARS-CoV-2 3CL^pro (Severe acute respiratory syndrome coronavirus 2 (2019-nCoV) (SARS-CoV-2), UniProt P0DTD1)
Assay: biochemical
Details: for IC50: 3CL^pro FRET

COc1cc(Cn2c(=O)n(Cc3cnn[nH]3)c(=O)[nH]/c2=N\c2cc3cn(C)nc3cc2Cl)cc(OC)c1 [Compound 14]
IC50 (class symbols): 500 to 1000 nM

Cn1cc2cc(/N=c3\[nH]c(=O)n(Cc4cnn[nH]4)c(=O)n3Cc3cc(F)cc(F)c3)c(Cl)cc2n1 [Compound 15]
IC50: < 200 nM

Cn1cc2cc(/N=c3\[nH]c(=O)n(Cc4cnnn4C)c(=O)n3Cc3cc(F)c(F)cc3F)c(Cl)cc2n1 [Compound 16]
IC50: < 200 nM

Cn1cc2cc(/N=c3\[nH]c(=O)n(Cc4cnnn4C4CC4)c(=O)n3Cc3cc(F)c(F)cc3F)c(Cl)cc2n1 [Compound 21]
IC50 (class symbols): 200 to 500 nM

CC(C)n1nncc1Cn1c(=O)[nH]/c(=N\c2cc3cn(C)nc3cc2Cl)n(Cc2cc(F)c(F)cc2F)c1=O [Compound 22]
IC50: < 200 nM

CC(C)Cn1nncc1Cn1c(=O)[nH]/c(=N\c2cc3cn(C)nc3cc2Cl)n(Cc2cc(F)c(F)cc2F)c1=O [Compound 23]
IC50: < 200 nM

Cn1cc2cc(/N=c3\[nH]c(=O)n(Cc4cnnn4C4CCC4)c(=O)n3Cc3cc(F)c(F)cc3F)c(Cl)cc2n1 [Compound 24]
IC50 (class symbols): 200 to 500 nM

(E)-6-(2-methyl-2H-indazol-5-yl)imino)-3-(1-ethyl-1H-1,2,3-triazol-5-yl)methyl)-1-(4-fluorobenzyl)-1,3,5-triazine-2,4-dione [Compound 19]
IC50 (class symbols): 200 to 500 nM

(E)-6-(6-chloro-2-methyl-2H-indazol-5-yl)imino)-3-(1-ethyl-1H-1,2,3-triazole-5-(yl)methyl)-1-(4-(trifluoromethyl)benzyl)-1,3,5-triazine-2,4-dione [Compound 18]
IC50: < 100 nM | IC50 (class symbols): < 100 nM

(E)-6-(6-chloro-2-methyl-2H-indazol-5-yl)imino)-3-(1-ethyl-1H-1,2,3-triazole-5-yl)methyl)-1-(2,4,5-trifluorobenzyl)-1,3,5-triazine-2,4-dione [Compound 17]
IC50: < 200 nM and < 100 nM and 123 nM | IC50 (class symbols): < 100 nM | Inhibitory activity on 3CL^pro (inhibition rate) (Conc 0.1 nM): 0.65% | Inhibitory activity on 3CL^pro (inhibition rate) (Conc 1 nM): 5.00% | Inhibitory activity on 3CL^pro (inhibition rate) (Conc 5 nM): 8.20% | Inhibitory activity on 3CL^pro (inhibition rate) (Conc 10 nM): 15.16% | Inhibitory activity on 3CL^pro (inhibition rate) (Conc 20 nM): 18.22% | Inhibitory activity on 3CL^pro (inhibition rate) (Conc 30 nM): 24.39% | Inhibitory activity on 3CL^pro (inhibition rate) (Conc 50 nM): 33.16% | Inhibitory activity on 3CL^pro (inhibition rate) (Conc 100 nM): 45.44% | Inhibitory activity on 3CL^pro (inhibition rate) (Conc 500 nM): 70.62% | Inhibitory activity on 3CL^pro (inhibition rate) (Conc 1000 nM): 89.73%

(E)-6-(6-chloro-2-methyl-2H-indazol-5-yl)imino)-3-(1-ethyl-1H-1,2,3-triazole-5-yl)methyl)-1-(4-fluorobenzyl)-1,3,5-triazine-2,4-dione [Compound 20]
IC50 (class symbols): 200 to 500 nM
